Test results taken from patent US9187467B2, “2-phenyl benzothiazole linked imidazole compounds as potential anticancer agents and process for the preparation thereof” (Council of Scientific and Industrial Research, priority 2012, dated 2015).
Where two headings read alike, the source gives them in different places.

Experiments:
[1] = test system: SR; assay: SRB anticancer assay, leukemia; type: cell-based, human; conditions: Homo sapiens, 48 h
[2] = test system: BT-549; assay: SRB anticancer assay, breast; type: cell-based, human; conditions: Homo sapiens, BT-549, 48 h
[3] = test system: NCI-H23; assay: SRB anticancer assay, non-small lung; type: cell-based, human; conditions: for GI50: Homo sapiens, NCI-H23, 48 h
[4] = test system: ACHN; assay: SRB anticancer assay, renal; type: cell-based, human; set-up: Log10GI50: unit not given here; conditions: for GI50: Homo sapiens, 48 h
[5] = test system: MDA-MB-231/ATCC; assay: SRB anticancer assay, breast; type: cell-based, human; set-up: Log10GI50: unit not given here; conditions: for GI50: Homo sapiens, MDA-MB-231, 48 h, 48 h, read-out: GI50
[6] = test system: SF-539; assay: SRB anticancer assay, CNS; type: cell-based, human; set-up: Log10GI50: unit not given here; conditions: for GI50: Homo sapiens, SF-539, 48 h
[7] = test system: SF-295; assay: SRB anticancer assay, CNS; type: cell-based, human; set-up: Log10GI50: unit not given here; conditions: for GI50: Homo sapiens, SF-295, 48 h
[8] = test system: IGROV1; assay: SRB anticancer assay, ovarian; type: cell-based, human; conditions: Homo sapiens, IGROV-1; IGROV1, 48 h
[9] = test system: SK-MEL-5; assay: SRB anticancer assay, melanoma; type: cell-based, human; conditions: Homo sapiens, SK-MEL-5, 48 h
[10] = test system: NCI-H226; assay: SRB anticancer assay, non-small lung; type: cell-based, human; conditions: Homo sapiens, NCI-H226, 48 h
[11] = test system: SK-OV-3; assay: SRB anticancer assay, ovarian; type: cell-based, human; conditions: Homo sapiens, SK-OV-3, 48 h
[12] = test system: SF-268; assay: SRB anticancer assay, CNS; type: cell-based, human; set-up: Log10GI50: unit not given here; conditions: for GI50: Homo sapiens, SF-268, 48 h
[13] = test system: OVCAR-5; assay: SRB anticancer assay, ovarian; type: cell-based, human; conditions: Homo sapiens, OVCAR-5, 48 h
[14] = test system: SK-MEL-28; assay: SRB anticancer assay, melanoma; type: cell-based, human; set-up: Log10GI50: unit not given here; conditions: for GI50: Homo sapiens, SK-MEL-28, 48 h
[15] = test system: T-47D; assay: SRB anticancer assay, breast; type: cell-based; conditions: Homo sapiens, T47D, 48 h
[16] = test system: K-562; assay: SRB anticancer assay, leukemia; type: cell-based, human; conditions: Homo sapiens, K562; K-562, 48 h
[17] = test system: UACC-257; assay: SRB anticancer assay, melanoma; type: cell-based, human; conditions: for GI50: Homo sapiens, UACC-257, 48 h
[18] = test system: UACC-62; assay: SRB anticancer assay, melanoma; type: cell-based, human; conditions: for GI50: Homo sapiens, UACC-62, 48 h
[19] = test system: LOX IMVI; assay: SRB anticancer assay, melanoma; type: cell-based, human; set-up: Log10GI50: unit not given here; conditions: for GI50: Homo sapiens, 48 h
[20] = test system: A498; assay: SRB anticancer assay, renal; type: cell-based, human; set-up: Log10GI50: unit not given here; conditions: for GI50: Homo sapiens, A498, 48 h
[21] = test system: TK-10; assay: SRB anticancer assay, renal; type: cell-based, human; conditions: Homo sapiens, TK-10, 48 h
[22] = test system: HS 578T; assay: SRB anticancer assay, breast; type: cell-based, human; set-up: Log10GI50: unit not given here
[23] = test system: U251; assay: SRB anticancer assay, CNS; type: cell-based, human; set-up: Log10GI50: unit not given here; conditions: for GI50: Homo sapiens, U-251, U251, 48 h
[24] = test system: KM12; assay: SRB anticancer assay, colon; type: cell-based, human; conditions: Homo sapiens, KM12, 48 h
[25] = test system: NCI-H322M; assay: SRB anticancer assay, non-small lung; type: cell-based, human; conditions: Homo sapiens, 48 h
[26] = test system: OVCAR-3; assay: SRB anticancer assay, ovarian; type: cell-based, human; set-up: Log10GI50: unit not given here; conditions: for GI50: Homo sapiens, OVCAR-3, 48 h
[27] = test system: 786-0; assay: SRB anticancer assay, renal; type: cell-based, human; conditions: for GI50: Homo sapiens, 786-0, 48 h
[28] = test system: NCI-H460; assay: SRB anticancer assay, non-small lung; type: cell-based, human; conditions: Homo sapiens, NCI-H460, 48 h
[29] = test system: NCI-H522; assay: SRB anticancer assay, non-small lung; type: cell-based, human; set-up: Log10GI50: unit not given here; conditions: for GI50: Homo sapiens, NCI-H522, 48 h
[30] = test system: UO-31; assay: SRB anticancer assay, renal; type: cell-based, human; set-up: Log10GI50: unit not given here
[31] = test system: A549/ATCC; assay: SRB anticancer assay, non-small lung; type: cell-based, human; set-up: Log10GI50: unit not given here
[32] = test system: HL-60 (TB); assay: SRB anticancer assay, leukemia; type: cell-based, human; set-up: Log10GI50: unit not given here
[33] = test system: MALME-3M; assay: SRB anticancer assay, melanoma; type: cell-based, human; set-up: Log10GI50: unit not given here
[34] = test system: DU-145; assay: SRB anticancer assay, prostate; type: cell-based, human; set-up: Log10GI50: unit not given here
[35] = test system: HT29; assay: SRB anticancer assay, colon; type: cell-based, human; conditions: Homo sapiens, HT-29; HT29, 48 h
[36] = test system: PC-3; assay: SRB anticancer assay, prostate; type: cell-based, human; set-up: Log10GI50: unit not given here
[37] = MDA-MB-231/ATCC (row head MDA-MB-)
[38] = row head printed 231/ATCC (second line of MDA-MB-231/ATCC)

COc1cc(OC)cc(-c2cncn2-c2ccc(-c3nc4cc(OC)cc(OC)c4s3)cc2)c1 [Compound 6d, 2-(4-(5-(3,5-Dimethoxyphenyl)-1H-imidazol-1-yl)phenyl)-5,7-dimethoxybenzo[d]thiazole]
GI50 [1]: 3.3 µM | GI50 [2]: 5.77 µM | GI50 [3]: 10.3 µM | GI50 [4]: > 100 µM | GI50 [5, 37]: 9.01 µM | GI50 [5, 38]: 5.02 µM | GI50 [6]: 5.76 µM | GI50 [7]: 2.4 µM | GI50 [8]: 5.07 µM | GI50 [9]: 3.29 µM | GI50 [10]: 18.5 µM | GI50 [11]: 4.69 µM | GI50 [12]: 11.3 µM | GI50 [13]: > 100 µM | GI50 [14]: > 100 µM | GI50 [15]: 3.17 µM | GI50 [16]: 3.22 µM | GI50 [17]: > 100 µM | GI50 [18]: 4.75 µM | GI50 [19]: 5.48 µM | GI50 [20]: 3.15 µM | GI50 [21]: 16.8 µM | GI50 ([22]; Homo sapiens, 48 h): 3.09 µM | GI50 [23]: 4.76 µM | GI50 [24]: 4.52 µM | GI50 [25]: > 100 µM | GI50 [26]: 2.87 µM | GI50 [27]: 7.6 µM | GI50 [28]: 4.41 µM | GI50 [29]: 2.49 µM

COc1cc2nc(-c3ccc(-n4cncc4-c4ccc(N)cc4)cc3)sc2c(OC)c1OC [Compound 7h, 4-(1-(4-(5,6,7-Trimethoxybenzo[d]thiazol-2-yl)phenyl)-1H-imidazol-5-yl)benzenamine]
GI50 ([30]; Homo sapiens, UO-31, 48 h): 1.55 µM | Log10GI50 ([30]; UO-31, present compounds): −5.81 | GI50 [1]: 1.4 µM | GI50 [2]: 1.59 µM | GI50 [3]: 3.87 µM | Log10GI50 ([3]; NCI-H23, present compounds): −5.41 log10(M) | GI50 ([31]; Homo sapiens, 48 h): 3.14 µM | Log10GI50 ([31]; present compounds): −5.50 | GI50 [4]: 8.56 µM | Log10GI50 ([4]; present compounds): −5.07 | GI50 [5, 37]: 3.65 µM | GI50 [5, 38]: 5.36 µM | Log10GI50 ([5]; MDA-MB-231/ATCC, present compounds): −5.44 | GI50 [6]: 7.14 µM | Log10GI50 ([6]; SF-539, present compounds): −5.15 | GI50 [7]: 1.53 µM | Log10GI50 ([7]; SF-295, present compounds): −5.82 | GI50 [8]: 2.63 µM | GI50 [9]: 2.74 µM | Log10GI50 ([32]; HL-60(TB), present compounds): −6.00 | GI50 ([32]; Homo sapiens, HL-60, 48 h): 0.989 µM | GI50 [10]: 4.73 µM | GI50 [11]: 11.7 µM | GI50 [12]: 12.3 µM | Log10GI50 ([12]; SF-268, present compounds): −4.91 | GI50 [13]: 34.3 µM | GI50 [14]: > 100 µM | Log10GI50 ([14]; SK-MEL-28, present compounds): >−4.0 | GI50 [15]: 1.82 µM | GI50 [17]: 6.4 µM | Log10GI50 ([17]; UACC-257, present compounds): −5.19 log10(M) | GI50 [18]: 5.45 µM | Log10GI50 ([18]; UACC-62, present compounds): −5.26 log10 M | GI50 [19]: 3.65 µM | Log10GI50 ([19]; present compounds): −5.44 | Log10GI50 ([20]; A498, present compounds): −5.67 | GI50 [20]: 2.13 µM | GI50 [21]: 4.93 µM | Log10GI50 ([22]; present compounds): −5.27 | GI50 [23]: 3.84 µM | Log10GI50 ([23]; U251, present compounds): −5.42 | GI50 ([33]; Homo sapiens, Malme-3M, 48 h): 0.71 µM | Log10GI50 ([33]; MALME-3M, present compounds): −6.15 | Log10GI50 ([34]; DU-145, present compounds): −5.04 | GI50 ([34]; Homo sapiens, DU-145, 48 h): 7.25 µM | GI50 [25]: 2.07 µM | GI50 [26]: 2.73 µM | Log10GI50 ([26]; OVCAR-3, present compounds): −5.56 | GI50 [35]: 2.79 µM | Log10GI50 ([27]; 786-0, present compounds): −5.20 log10 M | GI50 [27]: 6.26 µM | GI50 [28]: 5.13 µM | GI50 [29]: 2.74 µM | Log10GI50 ([29]; NCI-H522, present compounds): −5.56 | GI50 ([36]; Homo sapiens, PC-3, 48 h): 3.02 µM | Log10GI50 ([36]; PC-3, present compounds): −5.52
